Results on eleven compounds are retold here after ChEMBL document CHEMBL1133798, “Potent and selective bicyclic lactam inhibitors of thrombin. Part 4: transition state inhibitors” (Bioorg Med Chem Lett, 2001).

The target of one series is Prothrombin (Homo sapiens, UniProt P00734). Put plainly: In vitro activity against human alpha thrombin was determined.
Series [1] is filed under the species Rattus norvegicus. Put plainly: Mean occulation time was measured in rat arterial thrombosis model. Type of series: functional.
A further series deals with Serine protease 1 (Homo sapiens, UniProt P07477). Put plainly: In vitro activity against human alpha trypsin was determined.
Series [2] is filed under the species Rattus norvegicus. Kind of series: Thrombin time was measured in rat arterial thrombosis model. It counts as functional.
Series [3] is filed under the species Rattus norvegicus. Put plainly: Activated partial thromboplastin time was measured in rat arterial thrombosis model. Type of series: functional.
Series [4] can be described thus: Oral bioavailability in rat (dose 30 mg/kg). Type of series: ADME, organism-based. Conditions: in vivo.

Chain of Serine protease 1 (P07477 whole entry): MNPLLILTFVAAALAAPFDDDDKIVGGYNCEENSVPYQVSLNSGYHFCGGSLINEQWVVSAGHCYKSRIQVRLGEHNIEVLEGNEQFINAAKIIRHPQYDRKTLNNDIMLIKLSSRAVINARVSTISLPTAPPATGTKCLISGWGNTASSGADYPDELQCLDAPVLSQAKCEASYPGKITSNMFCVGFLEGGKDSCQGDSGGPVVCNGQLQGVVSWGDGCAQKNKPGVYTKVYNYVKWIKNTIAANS

For the compound `CNC(=O)C(=O)C(NC(=O)[C@@H]1CC[C@H]2CN(S(=O)(=O)Cc3ccccc3)CC(=O)N21)[C@H]1CC[C@H](N)CC1` (some centres undefined), the Ki at Prothrombin is 0.33 nM; on Serine protease 1, 2400 nM. For the same compound, the MOT in the series listed under Rattus norvegicus [1] came to 20 min. Further, in the series listed under Rattus norvegicus [2], the TT came to 999 s. Besides, the APTT in the series listed under Rattus norvegicus [3] worked out at 47 s.

Turning to `N[C@H]1CC[C@H](C(NC(=O)[C@@H]2CC[C@H]3CN(S(=O)(=O)Cc4ccccc4)CC(=O)N32)C(=O)C(=O)O)CC1` (some centres undefined), the inhibitory constant (Ki) at Prothrombin amounted to 0.09 nM; at Serine protease 1 it was 2200 nM. Further, the MOT in the series listed under Rattus norvegicus [1] is listed as over 60 min. Also, in series [4], the bioavailability was 0.4%. The same compound yielded a TT in the series listed under Rattus norvegicus [2] of 938 s. The APTT in the series listed under Rattus norvegicus [3] amounted to 54 s.

On to `N[C@H]1CC[C@H](C(NC(=O)[C@@H]2CC[C@H]3CN(S(=O)(=O)Cc4ccccc4)CC(=O)N32)C(=O)c2nc3ccccc3s2)CC1` (some centres undefined), for which the inhibition constant Ki at Prothrombin amounted to 0.72 nM; at Serine protease 1, 1400 nM. In addition, the MOT in the series listed under Rattus norvegicus [1] was over 60 min. This compound also came in with a bioavailability in series [4] of 0.6%. In the series listed under Rattus norvegicus [2], this compound gave a TT of 339 s. The same compound registered an APTT in the series listed under Rattus norvegicus [3] of 25 s.

Regarding `Cc1nc(C(=O)C(NC(=O)[C@@H]2CC[C@H]3CN(S(=O)(=O)Cc4ccccc4)CC(=O)N32)[C@H]2CC[C@H](N)CC2)sc1C(=O)O` (some centres undefined), the Ki worked out at 80 nM on Prothrombin and 65000 nM on Serine protease 1. This compound also displayed an MOT in the series listed under Rattus norvegicus [1] of 16 min. This compound gave a bioavailability in series [4] of 0.4%. Further, the TT in the series listed under Rattus norvegicus [2] amounted to 99 s. In the series filed under Rattus norvegicus [3], this compound returned an APTT of 20 s.

On to `CCCCOC(=O)C(=O)C(NC(=O)[C@@H]1CC[C@H]2CN(S(=O)(=O)Cc3ccccc3)CC(=O)N21)[C@H]1CC[C@H](N)CC1` (some centres undefined), for which the IC50 against Prothrombin worked out at 0.1 nM; against Serine protease 1, 550 nM. In the series filed under Rattus norvegicus [1], this compound came in with an MOT of 47 min. This compound also came in with a bioavailability in series [4] of 0.7%. Further, the TT in the series filed under Rattus norvegicus [2] worked out at 883 s. Further, the APTT in the series listed under Rattus norvegicus [3] amounted to 53 s.

For the compound `N[C@H]1CC[C@H](C(NC(=O)[C@@H]2CC[C@H]3CN(S(=O)(=O)Cc4ccccc4)CC(=O)N32)C(=O)c2nccs2)CC1` (some centres undefined), the inhibition constant (Ki) on Prothrombin was found to be 3.2 nM; on Serine protease 1, 8000 nM. The MOT in the series listed under Rattus norvegicus [1] is over 60 min. Further, the bioavailability in series [4] worked out at 1.8%. This compound also returned a TT in the series listed under Rattus norvegicus [2] of 829 s. The APTT in the series listed under Rattus norvegicus [3] amounted to 66 s.

`COC(=O)C(=O)C(NC(=O)[C@@H]1CC[C@H]2CN(S(=O)(=O)Cc3ccccc3)CC(=O)N21)[C@H]1CC[C@H](N)CC1` (some centres undefined): at Prothrombin, the Ki came to 0.13 nM. This compound also returned an MOT in the series filed under Rattus norvegicus [1] of over 60 min. This compound registered a bioavailability in series [4] of 1.1%. Besides, the TT in the series filed under Rattus norvegicus [2] was found to be 999 s. Further, in the series listed under Rattus norvegicus [3], the APTT turned out to be 46 s.

In the case of `N[C@H]1CC[C@H](C(NC(=O)[C@@H]2CC[C@H]3CN(S(=O)(=O)Cc4ccccc4)CC(=O)N32)C(=O)C(=O)NCC(=O)O)CC1` (some centres undefined), the figures for the Ki at Prothrombin and at Serine protease 1 were 2.14 nM and 29000 nM, respectively.

`N[C@H]1CC[C@H](C(NC(=O)[C@@H]2CC[C@H]3CN(S(=O)(=O)Cc4ccccc4)CC(=O)N32)C(=O)c2nnnn2CC(=O)O)CC1` (some centres undefined) registered a Ki on Serine protease 1 of over 400000 nM.

As for `Cn1nnnc1C(=O)C(NC(=O)[C@@H]1CC[C@H]2CN(S(=O)(=O)Cc3ccccc3)CC(=O)N21)[C@H]1CC[C@H](N)CC1` (some centres undefined), the Ki on Prothrombin was found to be 5 nM; on Serine protease 1, 35000 nM. The same compound displayed an MOT in the series filed under Rattus norvegicus [1] of 46 min. In the series listed under Rattus norvegicus [2], this compound displayed a TT of 322 s. Also, the APTT in the series filed under Rattus norvegicus [3] was 46 s.

Turning to `CCSC(=O)C(=O)C(NC(=O)[C@@H]1CC[C@H]2CN(S(=O)(=O)Cc3ccccc3)CC(=O)N21)[C@H]1CC[C@H](N)CC1` (some centres undefined), the Ki at Prothrombin turned out to be 0.26 nM; at Serine protease 1, 150 nM. The compound further registered an MOT in the series filed under Rattus norvegicus [1] of 49 min. Also, the bioavailability in series [4] worked out at 0.3%. This compound had a TT in the series filed under Rattus norvegicus [2] of 999 s. The compound further showed an APTT in the series filed under Rattus norvegicus [3] of 33 s.
